We go through 20 molecules from ChEMBL document CHEMBL1147009, “Synthesis and SAR studies of diarylpyrrole anticoccidial agents” (Bioorg Med Chem Lett, 2006).

The subject of experiment [1] is Eimeria tenella. In words: Anticoccidial activity against Eimeria tenella at 100 ppm. Type of experiment: functional.
The subject of experiment [2] is Eimeria acervulina. The experiment can be described thus: Anticoccidial activity against Eimeria acervulina at 100 ppm. Type of experiment: functional.
The target of experiment [3] is cGMP-dependent protein kinase (Eimeria tenella, UniProt Q8MMZ8). In words: Inhibition of Eimeria tenella PKG.
Chain of cGMP-dependent protein kinase (Q8MMZ8 whole entry): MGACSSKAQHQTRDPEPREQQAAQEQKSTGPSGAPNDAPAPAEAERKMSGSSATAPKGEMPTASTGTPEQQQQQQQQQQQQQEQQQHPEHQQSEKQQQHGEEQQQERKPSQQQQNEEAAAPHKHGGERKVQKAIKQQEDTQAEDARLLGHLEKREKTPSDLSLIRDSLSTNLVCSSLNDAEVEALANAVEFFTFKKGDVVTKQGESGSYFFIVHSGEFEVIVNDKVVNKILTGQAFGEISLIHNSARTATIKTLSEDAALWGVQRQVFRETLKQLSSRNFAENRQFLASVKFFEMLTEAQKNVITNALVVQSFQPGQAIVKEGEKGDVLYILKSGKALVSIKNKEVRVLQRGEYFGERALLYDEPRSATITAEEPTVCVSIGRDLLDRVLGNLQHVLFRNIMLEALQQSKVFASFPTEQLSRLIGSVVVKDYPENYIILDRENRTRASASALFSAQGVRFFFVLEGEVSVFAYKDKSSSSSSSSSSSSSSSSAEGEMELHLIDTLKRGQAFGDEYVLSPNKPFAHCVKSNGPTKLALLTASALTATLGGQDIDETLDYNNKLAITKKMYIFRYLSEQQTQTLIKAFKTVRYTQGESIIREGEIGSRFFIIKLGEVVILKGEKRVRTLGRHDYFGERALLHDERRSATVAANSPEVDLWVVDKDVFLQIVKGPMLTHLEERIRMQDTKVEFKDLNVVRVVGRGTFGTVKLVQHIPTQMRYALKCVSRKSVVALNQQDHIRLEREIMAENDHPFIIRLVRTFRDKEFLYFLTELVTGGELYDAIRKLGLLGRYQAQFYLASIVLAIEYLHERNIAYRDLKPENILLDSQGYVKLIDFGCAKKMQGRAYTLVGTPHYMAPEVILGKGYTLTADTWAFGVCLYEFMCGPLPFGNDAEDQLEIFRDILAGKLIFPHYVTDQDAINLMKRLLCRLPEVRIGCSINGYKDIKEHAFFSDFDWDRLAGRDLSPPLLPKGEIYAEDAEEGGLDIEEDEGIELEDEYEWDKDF

By IC50 is commonly meant the concentration that inhibits the measured activity by half. Higher therefore signals weaker potency. Consider `CCOC(=O)c1cc(-c2ccncc2)c(-c2ccc(F)cc2)[nH]1`, for which the Activity in experiment [1] and in experiment [2] was <50% throughout. The IC50 in experiment [3] worked out at 430 nM.

On to `OCCN1CCCC1c1cc(-c2ccncc2)c(-c2ccc(F)cc2)[nH]1` (centres undefined), for which the Activity in experiment [1] and in experiment [2] was <50% each time. The same molecule displayed a half-maximal inhibitory concentration (IC50) in experiment [3] of 2.1 nM.

In the case of `OCC1CCN(Cc2cc(-c3ccncc3)c(-c3ccc(F)cc3)[nH]2)CC1`, the Activity in experiment [1] and in experiment [2] was <50% each time. For the same molecule, inhibition in experiment [3] was half-maximal at 13 nM (IC50).

Take `CNC(=O)N1CCCC1c1cc(-c2ccncc2)c(-c2ccc(F)cc2)[nH]1` (centres undefined): the Activity in experiment [1] and in experiment [2] was <50% each time. The same molecule came in with an IC50 in experiment [3] of 2.3 nM.

Consider `CN1CCCCC1c1cc(-c2ccncc2)c(-c2ccc(F)cc2)[nH]1` (centres undefined), for which the Activity in experiment [1] and in experiment [2] was <50% each time. For the same molecule, the IC50 in experiment [3] came out at 2.7 nM.

`O=C(O)Cc1cc(-c2ccncc2)c(-c2ccc(F)cc2)[nH]1`: the Activity in experiment [1] and in experiment [2] was <50% each time. Moreover, in experiment [3], the IC50 was > 1000 nM.

With `CN(C)C(=O)Cc1cc(-c2ccncc2)c(-c2ccc(F)cc2)[nH]1`, the Activity in experiment [1] and in experiment [2] was <50% throughout. Moreover, the IC50 in experiment [3] amounted to 4.1 nM.

On to `C[C@@H](O)CN1CCCC1c1cc(-c2ccncc2)c(-c2ccc(F)cc2)[nH]1` (some centres undefined), for which the Activity in experiment [1] and in experiment [2] was <50% in each case. The IC50 in experiment [3] stood at 3.3 nM.

With `CN(C)Cc1cc(-c2ccncc2)c(-c2ccc(F)cc2)[nH]1`, in experiment [2], the Activity is < 50%. The same molecule returned an IC50 in experiment [3] of 0.35 nM.

For `C[C@H](O)CN1CCCC1c1cc(-c2ccncc2)c(-c2ccc(F)cc2)[nH]1` (some centres undefined), the Activity is recorded as 80% in experiment [1] and <50% in experiment [2]. The molecule further yielded an IC50 in experiment [3] of 2.8 nM.

`Fc1ccc(-c2[nH]c(CN3CCC3)cc2-c2ccncc2)cc1`: the Activity in experiment [1] and in experiment [2] was <50% in each case. In experiment [3], this molecule yielded an IC50 of 1.3 nM.

As to `CN1CCCC1c1cc(-c2ccncc2)c(-c2ccc(F)cc2)[nH]1` (centres undefined), the Activity in experiment [1] is <50%; in experiment [2] it was 80%. This molecule also showed an IC50 in experiment [3] of 1 nM.

For `CN(C)CCc1cc(-c2ccncc2)c(-c2ccc(F)cc2)[nH]1`, the Activity in experiment [1] and in experiment [2] was 50% throughout. In experiment [3], this molecule registered a half-inhibitory concentration (IC50) of 2.5 nM.

As to `Fc1ccc(-c2[nH]c(CN3CCCCC3)cc2-c2ccncc2)cc1`, the Activity in experiment [1] and in experiment [2] was <50% each time. The IC50 in experiment [3] came to 3.7 nM.

For the molecule `Fc1ccc(-c2[nH]c(C3CCCN3)cc2-c2ccncc2)cc1` (centres undefined), the figures for the Activity in experiment [1] and in experiment [2] were 50% and <50%, respectively. In addition, the IC50 in experiment [3] is 3.1 nM.

Consider `CC(C)C(c1cc(-c2ccncc2)c(-c2ccc(F)cc2)[nH]1)N(C)C` (centres undefined), for which the Activity stood at 50% in experiment [1] and 80% in experiment [2]. The concentration for half-maximal inhibition (IC50) in experiment [3] was 0.71 nM.

`Fc1ccc(-c2[nH]c(CN3CCOCC3)cc2-c2ccncc2)cc1`: the Activity in experiment [1] and in experiment [2] was <50% each time. In experiment [3], the half-inhibitory concentration (IC50) was found to be 7.6 nM.

For the molecule `O=S(=O)(c1ccc(F)cc1)N1CCCC1c1cc(-c2ccncc2)c(-c2ccc(F)cc2)[nH]1` (centres undefined), the Activity in experiment [1] and in experiment [2] was <50% in each case. In addition, half-maximal inhibition in experiment [3] (IC50) was put at 1.5 nM.

Regarding `O=C(OCc1ccccc1)N1CCCC1c1cc(-c2ccncc2)c(-c2ccc(F)cc2)[nH]1` (centres undefined), the Activity in experiment [1] and in experiment [2] was <50% throughout. Also, the concentration for half-maximal inhibition (IC50) in experiment [3] stood at 2.7 nM.

In the case of `CCN(C)CCCc1cc(-c2ccncc2)c(-c2ccc(F)cc2)[nH]1`, the Activity in experiment [1] and in experiment [2] was <50% throughout. Besides, in experiment [3], the IC50 worked out at 4.1 nM.
